Experimental data from patent US4181729A, “Phenyl or phenoxy substituted spiro-imidazolidinedione derivatives” (Pfizer Inc., priority 1979, dated 1980).

Tests used:
aldose reductase = target: T1, aldose reductase (Bos taurus, UniProt P16116); test: Aldose reductase inhibitory activity; format: biochemical, calf lens (partially purified enzyme); conditions: partially purified aldose reductase from calf lens; read-out: 50% Inhibitory Concentration
T1 construct: partially purified aldose reductase enzyme obtained from calf lens; from tissue; host or cells: calf lens
Description: The derivatives prepared in Examples 1-6 were tested for their ability to reduce or inhibit aldose reductase enzyme activity, following the procedure described in U.S. Pat. No. 3,821,383 and based on the procedure of Hayman et. al., Journal of Biological Chemistry, 240, 877 (1965). The substrate employed was partially purified aldose reductase enzyme obtained from calf lens. The drug was tested to determine the concentration that would cause 50 percent inhibition of enzyme activity.

[1] = test system: sorbitol accumulation in the sciatic nerve; test: Inhibition of sorbitol accumulation in the sciatic nerve of streptozotocinized (diabetic) rats; format: in vivo; conditions: oral at 4, 8 and 24 h after streptozotocin, rat sciatic nerve, 27 h after induction of diabetes
Description: Some of the Examples of derivatives prepared above were also tested for their ability to reduce or inhibit sorbitol accumulation in the sciatic nerve of streptozotocinized (i.e., diabetic) rats essentially by the procedure described in U.S. Pat. No. 3,821,383. In the present study, the amount of sorbitol accumulation in the sciatic nerves was measured 27 hours after induction of diabetes. The compounds were administered orally at the dose level indicated at 4, 8 and 24 hours following the administration of streptozotocin. The results obtained in this manner are presented in terms of percent inhibition (%) afforded by the test compound compared to the control where no compound was administered (i.e., the untreated animal where sorbitol levels normally rise from approximately […] tissue to as high as […] tissue in the 27-hour test period).

Compound	IC50 (aldose reductase)	% Inhibition (sorbitol accumulation) ([1]; 25 mg./kg. t.i.d.)	% Inhibition (sorbitol accumulation) ([1]; 1.5 mg./kg. t.i.d.)	% Inhibition (sorbitol accumulation) ([1]; 10 mg./kg. t.i.d.)
O=C1NC(=O)C2(N1)c1ccccc1CCC2c1ccccc1 (stereo not shown) [Example 1, 1',2',3',4'-tetrahydro-3'-phenyl-spiro[imidazolidine-4,4'-naphthalene]-2,5-dione]	> 100 µM	18%	–	–
O=C1NC(=O)C2(CCOc3c(Cl)cc(-c4ccccc4)cc32)N1 (stereo not shown) [Example 6, 8'-chloro-6'-phenyl-spiro[imidazolidine-4,4'-chroman]-2,5-dione]	10 µM	–	–	–
O=C1NC(=O)C2(CCOc3c(-c4ccccc4)cccc32)N1 (stereo not shown) [Example 4, 8'-phenyl-spiro[imidazolidine-4,4'-chroman]-2,5-dione]	1 µM	–	–	54%
O=C1NC(=O)C2(CCOc3ccc(-c4ccccc4)cc32)N1 (stereo not shown) [Example 3, 6'-phenyl-spiro[imidazolidine-4,4'-chroman]-2,5-dione]	–	–	0%	–

The remaining compounds from weak to strong by IC50 (aldose reductase), led by results:

IC50 (aldose reductase)	Compound	% Inhibition (sorbitol accumulation) ([1]; 25 mg./kg. t.i.d.)	% Inhibition (sorbitol accumulation) ([1]; 1.5 mg./kg. t.i.d.)	% Inhibition (sorbitol accumulation) ([1]; 10 mg./kg. t.i.d.)
100 µM	O=C1NC(=O)C2(CCC(c3ccccc3)c3ccccc32)N1 (stereo not shown) [Example 2, 1',2',3',4'-tetrahydro-1'-phenyl-spiro[imidazolidine-4,4'-naphthalene]-2,5-dione]	27%	–	–
10 µM	O=C1NC(=O)C2(CCOc3ccc(Oc4ccccc4)cc32)N1 (stereo not shown) [Example 5, 6'-phenoxy-spiro[imidazolidine-4,4'-chroman]-2,5-dione]	–	0%	–
